Test: Bromphenol Blue (BPB) Extraction Method, spectrophotometric at 595 nm (modified CTM 0824), on treated fabric
Assay type: physicochemical
Conditions: for BOILED IN WATER % EXTRACTION / CHANGE / NO BOIL % EXTRACTION: Table XII; for % BPB EXTRACTION CHANGE / % EXTRACTION CHANGE / % BPB Extraction (change on boiling) / EXTRACTION CHANGE: boiled vs not boiled; for Boiling Durability - % BPB Extraction: Boil 30 min., Table XIV; for Strike Rate - % BPB Extraction: No Boil, 0.25 grams of fabric, Table XIII

CCCCCCCCCCCCCCCCCC[N+](C)(C)CCC[Si](OC)(OC)OC.[Cl-] [AMT, N, N-dimethyl-N-Octadecyl-3-(trimethoxysilyl)propanaminium chloride]
BOILED IN WATER % EXTRACTION (130° C./5 minutes): 27% | CHANGE (130° C./5 minutes): −34% | NO BOIL % EXTRACTION (130° C./5 minutes): 61% | CHANGE (130° C./30 minutes): −41% | NO BOIL % EXTRACTION (130° C./30 minutes): 68% | % Extraction @ 595 nm (ACRYLIC MODACRYLIC, boiled 30 minutes, Table IV): 45% | % BPB EXTRACTION CHANGE (ACRYLIC MODACRYLIC, Table IV): −46% | % Extraction @ 595 nm (ACRYLIC MODACRYLIC, not boiled, Table IV): 91% | Boiling Durability % BPB EXTRACTION @ 595 nm (ACRYLIC, boiled 30 minutes, Table XVII): 14% | % EXTRACTION CHANGE (ACRYLIC, Table XVII): −42% | Boiling Durability % BPB EXTRACTION @ 595 nm (ACRYLIC, not boiled, Table XVII): 56% | BOILED IN WATER % EXTRACTION (AIR DRIED): 37% | CHANGE (AIR DRIED): −38% | NO BOIL % EXTRACTION (AIR DRIED): 75% | % BPB EXTRACTION @ 595 nm (COTTON, boiled 30 minutes, Table III): 95% | % Extraction @ 595 nm (COTTON, boiled 30 minutes, Table IV): 94% | % Extraction @ 595 nm (COTTON, boiled 30 minutes, Table VI): 94% | % BPB EXTRACTION @ 595 nm (COTTON, boiled 30 minutes, Table XV): 92% | % EXTRACTION CHANGE (COTTON, Table III): −1% | % EXTRACTION CHANGE (COTTON, Table IX): −1% | % EXTRACTION CHANGE (COTTON, Table VII): +2% | % EXTRACTION CHANGE (COTTON, Table XV): −1% | % BPB EXTRACTION @ 595 nm (COTTON, boiled, Table IX): 92% | % BPB EXTRACTION @ 595 nm (COTTON, boiled, Table VII): 97% | % BPB EXTRACTION @ 595 nm (COTTON, not boiled, Table III): 96% | % Extraction @ 595 nm (COTTON, not boiled, Table IV): 95% | % BPB EXTRACTION @ 595 nm (COTTON, not boiled, Table IX): 93% | % Extraction @ 595 nm (COTTON, not boiled, Table VI): 94% | % BPB EXTRACTION @ 595 nm (COTTON, not boiled, Table VII): 95% | % BPB EXTRACTION @ 595 nm (COTTON, not boiled, oven dried 130° C. 5 minutes, Table XV): 93% | % Extraction @ 595 nm (NYLON, boiled 30 minutes, Table I): 45% | % BPB EXTRACTION @ 595 nm (NYLON, boiled 30 minutes, Table III): 20% | % Extraction @ 595 nm (NYLON, boiled 30 minutes, Table IV): 45% | % BPB EXTRACTION @ 595 nm (NYLON, boiled 30 minutes, Table XV): 30% | Boiling Durability % BPB EXTRACTION @ 595 nm (NYLON, boiled 30 minutes, Table XVII): 26% | % BPB Extraction (change on boiling) (NYLON, Table I): −37% | % EXTRACTION CHANGE (NYLON, Table III): −57% | % BPB EXTRACTION CHANGE (NYLON, Table IV): −25% | % EXTRACTION CHANGE (NYLON, Table IX): −66% | EXTRACTION CHANGE (NYLON, Table VI): −71% | % EXTRACTION CHANGE (NYLON, Table VII): −69% | % EXTRACTION CHANGE (NYLON, Table XV): −59% | % EXTRACTION CHANGE (NYLON, Table XVII): −54% | % BPB EXTRACTION @ 595 nm (NYLON, boiled, Table VII): 18% | % Extraction @ 595 nm (NYLON, not boiled, Table I): 82% | % BPB EXTRACTION @ 595 nm (NYLON, not boiled, Table III): 77% | % Extraction @ 595 nm (NYLON, not boiled, Table IV): 70% | % Extraction @ 595 nm (NYLON, not boiled, Table VI): 82% | % BPB EXTRACTION @ 595 nm (NYLON, not boiled, Table VII): 87% | % BPB EXTRACTION @ 595 nm (NYLON, not boiled, oven dried 130° C. 5 minutes, Table XV): 89% | Boiling Durability - % BPB Extraction (Nylon): 14.42% | Boiling Durability - % BPB Extraction (Nylon, treatment at pH = 11): 17.83% | Boiling Durability - % BPB Extraction (PET Staple): 6.82% | Boiling Durability - % BPB Extraction (PET Staple, treatment at pH = 11): 37.6% | Strike Rate - % BPB Extraction (PET Staple): 17.36% | Boiling Durability - % BPB Extraction (PET, treatment at pH = 11): 14.38% | Strike Rate - % BPB Extraction (PET): 4.98% | % Extraction @ 595 nm (PET, boiled 30 minutes, Table I): 18% | % BPB EXTRACTION @ 595 nm (PET, boiled 30 minutes, Table III): 20% | % Extraction @ 595 nm (PET, boiled 30 minutes, Table VI): 26% | Boiling Durability % BPB EXTRACTION @ 595 nm (PET, boiled 30 minutes, Table XVII): 19% | % BPB Extraction (change on boiling) (PET, Table I): −71% | % EXTRACTION CHANGE (PET, Table III): −74% | % EXTRACTION CHANGE (PET, Table IX): −73% | EXTRACTION CHANGE (PET, Table VI): −63% | % EXTRACTION CHANGE (PET, Table VII): −72%

Source: patent US20030175438A1, “Treatments of solid substrates to enhance durability of treatments placed thereon” (priority 2002, published 2003)
